Source: paper PMC4077696 (PLoS Biology, 2014)
“Also recorded” adds a separate entry of the source. Counter-ions that a name gives are not always drawn.

Columns and labels:
[1] = system: P. falciparum protein translation; experiment: Global protein synthesis by radiolabeling parasite proteins after drug treatment; assay type: cell-based, Plasmodium falciparum; conditions: for Global protein synthesis after 23 h treatment of rings: 15 µM or 50>15 µM, BFA 5 µg/ml; for Global protein synthesis after 5 h treatment of trophozoites: 15 or 50 µM, BFA 10 µg/ml, 15 min labeling
Method: To gain further insight into the effects of 916, 024, and 025 on parasites, we assessed global protein synthesis following drug treatment by radiolabeling parasite proteins. Treatment of trophozoites with inhibitor for 5 h prior to radiolabeling had no detectable effect on translation, even at 50 µM concentrations (Figure S4A), indicating the compounds are not direct inhibitors of the translation machinery. We next assessed protein synthesis following 23 h of drug treatment of ring stage parasites (aged 1–3 h old at the initiation of treatment). […] Indeed, Giemsa smears following treatment identified a small proportion of pyknotic parasites in the population (results not shown). […] It is possible that PMV inhibition by 916 treatment has a similar but weaker effect to BFA, in that it causes the accumulation of uncleaved PEXEL precursors in the ER, perturbing ER transport, and that this negatively affects translation by an ER stress response. An alternative possibility is that translation was decreased slightly as a result of parasites dying from 916-mediated impairment of erythrocyte remodeling. Either way, the profile for 916 was different to that seen for 024 and 025, even at 50 µM, indicating the latter analogs likely kill parasites via a different mechanism to 916.
Whole parasite proteins were radiolabeled by culturing magnet-purified trophozoites (wild-type 3D7 or expressing PfEMP3-GFP) in Met/Cys-free medium for 30 min at 37°C before addition of 800 µCi/ml ^35S-Met/Cys (Perkin/Elmer) to the medium for the indicated times. Pellets were snap frozen in ethanol/dry ice bath and stored at −80°C. For radiolabeling in the presence of PMV inhibitor, parasites were treated with 20 µM WEHI-916 for 5 h before labeling commenced. For pulse-chases, proteins were radiolabeled in the presence or absence of inhibitor, as above, before further culture in radiolabel-free, inhibitor-free complete medium for the indicated times at 37°C before snap freezing. Frozen samples were either solubilized in Laemmli's buffer (Figure S4) or solubilized in 1% Triton X-100/PBS with protease inhibitor cocktail (Roche) and PfEMP3-GFP species immunopurified with α-GFP agarose (MBL) at 4°C for 2 h (Figures 3 and S3), and proteins were resolved by SDS-PAGE, visualized by autoradiography (7-d exposures), and quantified using a GS-800 Calibrated Densitometer (Bio-Rad).

[2] = system: PfEMP1 surface expression, CS2-GFP parasites; experiment: PfEMP1 (VAR2CSA) surface display on infected erythrocytes by flow cytometry with PAM1.4; assay type: cell-based, Plasmodium falciparum; conditions: 15 µM 23 h or 50>15 µM
Method: As 916 treatment has adverse affects on parasites after 24 h, a sublethal dosing regime was developed (see Figure S7) to maximize the inhibitor effect while ensuring parasites remained viable 24 h postinvasion when surface-exposed PfEMP1 was measured. Treatment with >15 µM for 23 h or with 50 µM for >12 h postinvasion prior to decreasing to 15 µM adversely affected parasite growth and was avoided.
To measure PfEMP1 display, highly synchronous ring-stage CS2-GFP parasites preferentially expressing VAR2CSA (see Plasmids, Parasites, and Antibody Production) were obtained by incubation of erythrocytes with viable merozoites for 15 min [47], and parasites were treated with 916, 025, or DMSO using the dosage regime above. […] Labeled cells were washed with 0.1% casein/PBS and analyzed on a FACSCalibur cytometer (Becton-Dickinson, USA). Fluorescence in channel FL1 was used to measure parasite-infected erythrocytes (GFP), and fluorescence in channel FL4 was used to measure bound PAM1.4 IgG antibodies (Alexa 633) for each sample. The geometric mean fluorescence of uninfected erythrocytes (treated with secondary and tertiary but not primary antibodies) was deducted from the geometric mean fluorescence of infected erythrocytes using >100,000 cells per condition. […]

[3] = system: Hyp8-GFP export in P. falciparum–infected erythrocytes; experiment: Quantification of Hyp8-GFP export and Maurer's clefts by immunofluorescence microscopy; assay type: cell-based, Plasmodium falciparum
Method: For quantification of events in cells infected with parasites expressing Hyp8-GFP, highly synchronous ring-stage parasites engineered to express Hyp8-GFP from the CRT promoter were obtained by incubation of erythrocytes with viable merozoites for 15 min [47] and treated with 20 or 50 µM 916 30 min postinvasion for 13 h (until Hyp8-GFP expression from the CRT promoter had occurred for 1 h). Smears were fixed in 90∶10 acetone∶methanol, labeled with anti-GFP and anti-EXP2 antibodies, and Z-stacks captured on a Deltavision Elite microscope using a 100× objective. Over 40 Z-stacks per condition were imaged using the same exposure settings to allow quantitative analysis between groups.
A parasite mask was generated by combining the signals from the maximum intensity projections of the nuclear (DAPI) and parasitophorous vacuole membrane (EXP2) images and setting a manual threshold. A whole infected erythrocyte mask was produced by manually tracing the cell boundary using the DIC image. Average GFP intensity measurements were determined on masked summed intensity projections of the GFP images using MetaMorph Image Analysis suite (Molecular Devices, USA). Ratios of the average intensity measurements of GFP inside the parasite (inside EXP2) versus exported to the erythrocyte (outside EXP2) were determined.
Clefts were counted using ImageJ's “Find Maxima” function to detect local maxima in the green signal within the masked cell region.

[4] = system: P. falciparum overexpressing PvPMVHA; experiment: Dose-response growth assay of parasites overexpressing PvPMVHA; assay type: cell-based, Plasmodium falciparum
Method: We next investigated the possible effects of PMV overexpression on parasite sensitivity to 916. […] To control for the carriage of episomes and selection on WR99210, sensitivity to 916 was compared between parasites overexpressing a similar construct on episomes on WR99210 selection (encoding miniVarHA; see Figure 1F).
(§1) In the case of dose-response curves, medium was kept for the entire experiment; in the case of curves in Figure 4B,C, medium was replaced with inhibitor-free medium at 48 h postinfection. Parasitaemia was always determined at 72 h by flow cytometry. To knock down PMV, GlcN (Sigma) was added to trophozoites and drug curves initiated by adding compound at subsequent rings (24 h) for 24–72 h.

[5] = system: P. falciparum NF54 expressing PMVHA-glmS; experiment: Dose-response growth assay of parasites expressing PMVHA-glmS or PMVHA-M9 with or without GlcN; assay type: cell-based, Plasmodium falciparum
Method: Parasites expressing PMVHA-glmS were next assessed for toxicity to 916.
as §1

[6] = target: Cathepsin D (Homo sapiens, UniProt P07339); experiment: Off-target activity against human aspartyl protease Cathepsin D; assay type: biochemical; conditions: read-out: IC50 CathD
Cathepsin D, sequence (P07339 65-412): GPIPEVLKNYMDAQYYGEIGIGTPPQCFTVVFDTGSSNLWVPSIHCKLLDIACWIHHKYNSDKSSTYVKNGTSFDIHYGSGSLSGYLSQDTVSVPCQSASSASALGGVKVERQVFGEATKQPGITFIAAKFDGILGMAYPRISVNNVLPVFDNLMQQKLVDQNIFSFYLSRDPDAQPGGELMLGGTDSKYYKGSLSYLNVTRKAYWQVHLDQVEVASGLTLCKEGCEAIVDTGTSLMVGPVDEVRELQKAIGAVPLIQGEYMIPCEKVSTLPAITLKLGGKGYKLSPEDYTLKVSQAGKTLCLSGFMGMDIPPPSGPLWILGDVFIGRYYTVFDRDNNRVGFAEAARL

SMILES | Global protein synthesis after 23 h treatment of rings [1] | Global protein synthesis after 5 h treatment of trophozoites [1] | Effect on PfEMP1 surface expression, in words [2] | Nonexported Hyp8-GFP signal inside EXP2, in words ([3]; 20 or 50 µM, 13 h) | Hyp8-GFP in Maurer's clefts (exported), in words ([3]; 20 or 50 µM, 13 h from 30 min postinvasion) | Reduction of mean number of GFP-positive Maurer's clefts ([3]; compared to DMSO) | Increase in EC50 with PvPMVHA overexpression versus miniVarHA control ([4]; 5 nM WR99210 selection) [fold] | Increase in EC50 with PvPMVHA overexpression versus wild-type 3D7 ([4]; wild-type 3D7 without WR99210 selection) [fold] | Decrease in EC50 in presence of GlcN, PMVHA-M9 control ([5]; PMVHA-M9 (inactive glmS), with versus without GlcN) [fold] | Decrease in EC50 following PMV knockdown ([5]; PMVHA-glmS, 6 mM GlcN versus no GlcN, 72 h) [fold] | IC50 [6] [µM] | Decrease of PfEMP1 surface expression ([2]; 24 h postinvasion)
CC[C@H](C)[C@H](NC(=O)[C@@H](NC(=O)[C@H](CCCNC(=N)N)NS(=O)(=O)Cc1ccccc1)C(C)C)[C@@H](O)CC(=O)NCCc1ccccc1 [compound 025, PhCH2SO2Arg-Val-AHMHpA-NH(CH2)2Ph . TFA] | no defect in global protein synthesis | no defect in global protein synthesis | no effect | – | – | – | – | – | – | – | – | –
CC(C)C[C@H](NC(=O)[C@@H](NC(=O)[C@H](CCCNC(=N)N)NS(=O)(=O)Cc1ccccc1)C(C)C)[C@@H](O)CC(=O)NCCc1ccccc1 [compound 916, PhCH2SO2-Arg(NH2)-Val-Sta-NH(CH2)2Ph .TFA] | minor reduction in translation; also recorded: slight reduction in translation | no defect in global protein synthesis | – | small but significant increase in nonexported GFP signal | dose-dependent decrease of Hyp8-GFP in MCs | up to 39% | 1.9 | 1.4 | 1.4 | 3.3 | 25 | up to 55%
